# Experimental data reported in patent US12491246B2, “Combination therapy of arms and natural killer cells” (KLEO PHARMACEUTICALS, INC., priority 2018, dated 2025).
# Tests used:
# [1] = test system: CIML NK cells; assay: CIML NK cell fratricide assay; type: cell-based
# Description: (§1) PBMC isolation: Leukopheresis product from a donor with body mass index (BMI) between 19-25, under 50 years old, not on immuno-suppressive drugs for at least 2 weeks with an estimated PBMC cell count of >10^10 was obtained from Key Biologics (subject ID 20982200) and transported at ambient temperature. Leukopheresis bag was wiped down with 70% EtOH, a small slit was made and contents were pipetted off into tubes. Leukopak contents were diluted 1:1 with PBS without Ca++/Mg++ and 20 ml of this mixture was layered on top of 25 mL of Ficoll. Tubes were then centrifuged at 400 g for 30 minutes without brakes. PBMCs were harvested from the interface into separate tubes, and tubes were filled to 50 mL with PBS. Cells were centrifuged for 10 min at 120 g to get rid of platelets. Supernatant was poured off and cells were re-suspended in RPMI 10% FBS at a concentration of 7-10×10^6 cells/ml. Cells were cultured overnight at 37C in a 5% CO2 atmosphere until NK cell isolation.
# (§2) NK cell isolation: PBMC were centrifuged at 400 g for 10 min and re-suspended in EasySep buffer. NK cells were isolated using NK cell isolation kits from STEMCELL Technologies according to kit's manufacturers' instructions. NK cell purity and phenotype was assessed by trypan Blue and flow cytometry using the following antibody cocktail: anti-CD56PE, CD3 APC, and viability was determined using staining with Trypan Blue exclusion dye, and by flow cytometry using Near Infra-Red Fixable viability dye (Thermo Fisher).
# CIML NK cell generation: Isolated NK cells were re-suspended at 2×10^6 cells/ml in XVIVO 10% Human Serum and the following concentrations IL-15 (50 ng/ml), IL-12 (10 ng/ml), IL-18(50 ng/ml) for 12 to 18 hrs. […]
# (§3) NK cell fratricide (death directed at NK cells in the same culture) was assessed by flow cytometry following a 2 hr incubation with the CD38 ARM at indicated concentrations in the presence or absence of 500 μg/ml intravenous immune globulin (IVIG). […]
# [2] = test system: non-CIML NK cells; assay: NK cell fratricide assay, non-CIML control NK cells; type: cell-based; details: 2 hr
# Description: as §1
# as §2, with “Fisher). […]” for “Fisher).”
# Purity and viability of NK cells and CIML NK cells: Among other things, the present disclosure provides highly pure and viable NK cell populations following isolation from PBMC. […] After an overnight incubation, purity and viability were assessed in the cultured cell populations. […]
# as §3
# [3] = test system: CD56+CD138− CIML NK cells; assay: NK cell fratricide in patient bone marrow co-incubation; type: cell-based, human; details: co-incubated with patients bone marrow for 4 hrs; FIG. 4
# Description: Patient bone marrow (3 ml) and blood (20 ml) were shipped at ambient temperature from Discovery Biosciences. Bone marrow was diluted 1:1 with PBS, and 50 μl of bone marrow-PBS mixture was aliquoted into 96 deep well plates. Bone marrow cells were incubated overnight until CIML cells were added next day.
# PBMC were isolated from blood by Ficoll density gradient centrifugation. PBMC were centrifuged at 400 g for 10 min and re-suspended in EasySep buffer. NK cells were isolated using NK cell isolation kits from STEMCELL Technologies according to kit's manufacturers' instructions.
# NK cells were re-suspended at 1×10^6 cells/ml in XVIVO15, 10% Human Serum, IL-15 (50 ng/ml), IL-12 (10 ng/ml), IL-18(50 ng/ml), and incubated for 18 hrs. Following overnight incubation with cytokines, NK cells were washed twice with PBS 5% Human Serum Albumin, counted and re-suspended at a cell density of 2×10^5 cells/ml of XVIVO15 media. Twenty microliters (4000 cells) were added per each well containing 50 μl of bone marrow: PBS mixture. […]
# The assay was then incubated for 4 hrs. at 37° C. […] Finally, cells were re-suspended in 200 μl of FACS Buffer and analyzed using Attune Flow Cytometer. Data were analyzed using FlowJo software and graphed using GraphPad Prism. […]
structure (smiles),measurement,setting,value
CCCCC[C@@H]1NC(=O)[C@H](CCCNC(=N)N)NC(=O)[C@H](C)NC(=O)CSC[C@@H](C(=O)NCCOCCOCCOCCOCCOCCOCCn2nnc3c2CCC2C(CC3)C2COC(=O)N2CCC(C(=O)NCC(=O)N[C@H](CCC(=O)N[C@H](CCC(=O)N[C@H](CCC(=O)O)C(=O)N[C@H](CCC(=O)N[C@H](CCC(=O)NCC(=O)NCC(=O)N[C@@H](CC(=O)O)C(=O)N[C@H]3CSSC[C@@H](C(=O)N[C@H](C(=O)O)[C@@H](C)O)NC(=O)[C@H](Cc4c[nH]c5ccccc45)NC(=O)[C@H](C(C)C)NC(=O)[C@H](CC(C)C)NC(=O)[C@H](CCC(=O)O)NC(=O)CNC(=O)[C@H](CC(C)C)NC(=O)[C@H](Cc4c[nH]cn4)NC(=O)[C@H](Cc4c[nH]c5ccccc45)NC(=O)[C@H](C)NC3=O)C(=O)O)C(=O)O)C(=O)O)C(=O)O)CC2)NC(=O)[C@H](CC(=O)O)NC(=O)[C@H](CCCCC)NC(=O)[C@H](Cc2ccc(-c3ccccc3)cc2)NC(=O)[C@H](CC(C)C)NC(=O)[C@H](C(C)C)NC(=O)CNC(=O)[C@H](CC(=O)O)NC(=O)[C@H](Cc2c[nH]cn2)NC(=O)[C@H](Cc2ccc(O)cc2)NC1=O (some centres unmarked) [CD38 ARM],increase in the percentage of dead NK cells,"[1]; CIML NK cells, +/−IVIG, 2 hours post-incubation",no increase
same,NK cell fratricide (data normalized to DMSO treated control),"[1]; even the highest doses, FIG. 1 (B)",no apparent NK cell fratricide was detected
same,increase in dead NK cells,[2]; 25 uM vs DMSO control,1.7%
same,increase in dead NK cells,[2]; highest concentration with IVIG vs DMSO IVIG control,0.93%
same,frequencies of CD56+CD138− CIML NK cells (NK cell fratricide),[3],did not change
